Experimental findings from US7109193B2, “Tricyclic diazepines tocolytic oxytocin receptor antagonists” (Wyeth, priority 2001, dated 2006) are described below.

A word on the melting point: it is the temperature, or range, at which the solid turns liquid.

The structures appear in SMILES notation.

`COc1cc(-c2ccccc2C)ccc1C(=O)N1Cc2ccc(C(=O)O)n2Cc2ccccc21` showed a melting point of 201 to 204 °C. In the case of `COc1cc(-c2ccccc2F)c(Cl)cc1C(=O)N1Cc2ccc(C(=O)O)n2Cc2ccccc21` it was 207 to 208 °C. As to `Cc1cc(C(=O)N2Cc3ccc(C(=O)O)n3Cc3ccccc32)ccc1-c1ccccc1C(F)(F)F`, the melting point is 233 to 235 °C.
